Measured values reported in patent US20230091310A1, “Inhibitor of Fertilized Egg Fragmentation” (priority 2019, published 2023).

Experiments:
eggs [1] = test: Oxidative stress test (ROS/RNS Detection Kit) in eggs; assay type: cell-based, mouse; details: 1 μM each; 15 hours on hot plate; vs vehicle (0.1% DMSO)
Procedure: Mouse cumulus cells-egg masses harvested by the method of Example 3 were stored in TYH medium and the cumulus cells were removed by 300 μg/mL hyaluronidase treatment to recover the eggs alone. TYH medium containing 1 μM selenoneine (SeN), TYH medium containing 1 μM ergothioneine (Erg) and TYH medium containing 1 μM ergothioneine and 1 μM ebselen (Tokyo Kasei Kogyo Co., Ltd.) (Erg+Eb) were prepared and incubated on a hot plate set to 37° C. As a control, a TYH medium (vehicle) containing the DMSO (0.1%) used to dissolve the ebselen was used. The collected eggs were transferred to incubated selenoneine-containing TYH medium and cultured under shielding for 15 hours. The reagent of a ReOIS-ID ROS/RNS Detection Kit (product of Enzo Co.) was added to the medium containing the cultured eggs, according to the manufacturer's protocol. DAPI (Wako Pure Chemical Industries, Ltd.) had already been separately added to stain the nuclei. The nuclei (DAPI) and the reactive oxygen species (ROS), reactive nitrogen species (RNS) and superoxides in the eggs were observed under a fluorescent microscope (FIG. 8A). The fluorescence intensity was calculated and graphed (FIGS. 8B to D).

fertilized eggs [2] = test: Fertilized egg fragmentation after treatment of eggs, in vitro fertilization; assay type: cell-based, mouse (C57BL/6 J line); details: eggs cultured with 100 nM; 24 h after sperm addition; vs control
Procedure: Female mice (C57BL/6 J line: 8- to 12-week-old) were treated for superovulation by the following procedure, and the eggs were harvested.
1. Animal serotropin (PMSG, ASKA Pharmaceutical Co., Ltd.) and animal gonadotropin (hCG, ASKA Pharmaceutical Co., Ltd.) were dissolved in physiological saline to […]. 2. The mice were intraperitoneally administered PMSG at 0.1 mL(5 units)/mouse, and after 48 hours they were intraperitoneally administered hCG at 0.1 mL (5 units)/mouse. 3. After hCG administration, the cumulus cells and egg masses were taken through the fallopian tubes of the mice at 14 to 16 hours.
The cumulus cells and egg masses harvested from the fallopian tubes of the superovulated mice were transferred to a drop of 100 μL TYH medium that had been previously incubated in 5% CO2 at 37° C., and allowed to stand in the incubator.
The harvested eggs were cultured for 2 hours in TYH medium, and then the 1 μL selenoneine (10 μM) solution prepared in Example 1 was added to the TYH medium drop (or not added for the control), and further culturing was carried out for 2 hours with a final concentration of 100 nM selenoneine in the medium. […] After 24 hours had passed in the presence of selenoneine, the fertilization rate was measured and the numbers of normal 2-cell stage embryos and fragmented embryos were counted. […]

mouse sperm [3] = test: Sperm membrane protection (propidium iodide / Hoechst 33342 staining); assay type: cell-based, mouse (C57BL/6 J line)
Procedure: (§1) A sperm mass harvested from the epididymis of an 8- to 12-week-old sexually matured male mouse (C57BL/6 J line) was transferred to a drop prepared in the TYH medium. It was then returned to the plastic dish in the incubator and allowed to stand for 1 hour. After standing for 1 hour, the selenoneine prepared in Example 1 was added to a drop of sperm-containing fertilization medium to final concentrations of 10 nM, 1 μM and 100 μM (or was not added for the control), and the mixture was cultured in an incubator for 3 hours, 6 hours and 9 hours, after which the sperm were obtained. The sperm were also obtained before culturing (0 h). The nuclei of obtained sperm were stained with 2 μg/mL of propidium iodide (PI: Sigma-Aldrich Japan, KK.) and 16.2 μM of Hoechst AG 33342 (Hoechst3342: Invitrogen Corp.), and observed under a fluorescent microscope (FIG. 9A). The number of sperm whose nuclei were unstained with propidium iodide was divided by the number of sperm whose nuclei were stained with Hoechst AG, to calculate the proportion of sperm which retained membranes (FIG. 9B).
Hoechst AG is cell membrane-permeable and can stain all sperm nuclei, whereas propidium iodide is membrane-impermeable and can only stain the nuclei of dead sperm or sperm that have damaged membranes. Therefore, the number of sperm whose nuclei were not stained with propidium iodide but were stained only by Hoechst AG represents the number of normal sperm which retained their membranes.
as §1, with “(Hoechst3342: distributed by” for “(Hoechst3342:”, “microscope.” for “microscope (FIG. 9A).”, “9C).” for “9B).”

mouse sperm [4] = test: Sperm motility test (CASA); assay type: cell-based, mouse (C57BL/6 J line); details: 1 μL of 10 μM added to 100 μL TYH drop; 3 h and 6 h incubation; vs control
Procedure: A 100 μL drop of TYH medium was prepared in a plastic dish, and liquid paraffin was laid over it until the drop was completely covered. The plastic dish was then allowed to stand for 16 hours in an incubator set to 5% CO2, 37° C. The TYH medium drop on the plastic dish was used for a sperm motility test and fertilization test. A sperm mass harvested from the epididymis of a 8- to 12-week-old sexually matured male mouse (C57BL/6 J line) was transferred to a drop prepared in the TYH medium. It was then returned to the plastic dish in the incubator and allowed to stand for 1 hour. After standing for 1 hour, 1 μL of selenoneine (10 μM) prepared in Example 1 was added to a drop of sperm-containing fertilization medium (or not added for the control), and the mixture was allowed to stand in an incubator. After incubation for 3 hours, the sperm motility was measured using CASA, and the proportion of sperm was measured, dividing it into motile sperm and progressive sperm (FIGS. 2A and B). After incubation for 6 hours, the proportion of sperm was then measured with similar division based on sperm motility (VCL) (FIGS. 2C and D).

eggs [5] = test: Stress-induced egg fragmentation (hot plate culturing); assay type: cell-based, mouse; details: hot plate 37° C.; for egg fragmentation: after 21 and 24 hours of culturing
Procedure: (§2) Mouse cumulus cells-egg masses harvested by the method of Example 3 were stored in TYH medium and the cumulus cells were removed by 300 μg/mL hyaluronidase treatment to recover the eggs alone. TYH medium was prepared with selenoneine at 10 nM, 100 nM, 1 μM, 10 μM and 100 μM, and incubated on a hot plate set to 37° C. Selenoneine-free THY medium was used as the control. The collected eggs were transferred to the incubated selenoneine-containing TYH medium and cultured under shielding for 12 hours, 15 hours, 18 hours, 21 hours and 24 hours, after which they were observed under a stereomicroscope and the proportion of fragmented eggs was examined (FIG. 6). The numbers of cultured eggs in each selenoneine-containing medium were 10 nM: 107, 100 nM: 161, 1 μM: 155, 10 μM: 118, 100 μM: 85 and control: 83.
Culturing by incubation on a hot plate instead of a CO2 incubator produced stress in the eggs. […] The numbers of cultured eggs in each medium were 10 nM: 63, 100 nM: 66, 1 μM: 63, 10 μM: 71, 100 μM: 54 and control: 83.
as §2, with “with ergothioneine” for “with selenoneine”, “C. Ergothioneine-free” for “C. Selenoneine-free”, “(FIG. 7).” for “(FIG. 6). The numbers of cultured eggs in each selenoneine-containing medium were 10 nM: 107, 100 nM: 161, 1 μM: 155, 10 μM: 118, 100 μM: 85 and control: 83.”
Culturing by incubation on a hot plate instead of a CO2 incubator produced stress in the eggs.

fertilized eggs [6] = test: Fertilized egg fragmentation after treatment of sperm, in vitro fertilization; assay type: cell-based, mouse (C57BL/6 J line); details: sperm incubated 6 h with 100 nM, 24 h after fertilization; for fragmented embryos: vs untreated control
Procedure: In the same manner as Example 2, sperm incubated for 6 hours in selenoneine-containing TYH medium (final concentration: 100 nM) were separated off with the medium and washed with TYH medium that had been previously incubated at 37° C. in a 5% CO2 atmosphere, after which the washed sperm were separated off and added to TYH medium containing cumulus cells-egg masses. After 24 hours had passed, the fertilization rate was measured and the numbers of normal 2-cell stage embryos and fragmented embryos were counted. For measurement of the fertilization rate, second polar body release and the presence or absence of cell nuclei in the split bodies of each of the 2-cell stage embryos were visually observed in the bright field of a stereomicroscope, and normal 2-cell stage embryos and fragmented embryos were likewise observed in the bright field of a stereomicroscope.
The inhibiting effect of ergothioneine treatment on fragmentation of fertilized eggs was examined in the same manner as the selenoneine treatment of sperm in Example 3, but using commercially available ergothioneine (final concentration: 100 nM) instead of selenoneine (FIG. 5). No difference in the proportion of 2-cell stage embryos was found between the ergothioneine treatment and selenoneine treatment (FIG. 5A).

[7] = 10 nM to 100 μM, culturing 3, 6 and 9 hours
[8] = 100 μM, after culturing for 9 hours, p<0.05

Structure (SMILES)	reactive nitrogen species (RNS) in eggs (eggs [1])	reactive oxygen species (ROS) in eggs (eggs [1])	superoxides in eggs (eggs [1])	fragmented embryos (fertilized eggs [2])	proportion of 2-cell stage embryos (fertilized eggs [2])	proportion of sperm which retained membranes (mouse sperm [3]; [7])	proportion of sperm which retained membranes (mouse sperm [3]; [8])	sperm motility (proportion of motile sperm and progressive sperm) (mouse sperm [4])	degree of egg fragmentation (eggs [5]; 100 nM, 1 μM and 10 μM in TYH medium, p<0.05)	proportion of 2-cell stage embryos (fertilized eggs [6]; washed, vs control)	fragmented embryos (fertilized eggs [6]; washed)	egg fragmentation (eggs [5]; 10 nM to 10 μM in TYH medium)	egg fragmentation (eggs [5]; 1 μM in TYH medium, p<0.05)	proportion of 2-cell stage embryos, ergothioneine treatment versus selenoneine treatment (fertilized eggs [6])
C[N+](C)(C)[C@@H](Cc1cnc([Se-])[nH]1)C(=O)O [selenoneine]	significant reduction	increased significantly	No change	no fragmented embryos	no difference	membrane-protecting effect	significantly protected	No effect on sperm motility	significantly inhibited	no difference	No fragmented embryos	–	–	–
C[N+](C)(C)[C@@H](Cc1c[nH]c(=S)[nH]1)C(=O)[O-] [ergothioneine]	no variation	increased significantly	No change	–	–	membrane-protecting effect	significantly protected	–	–	–	reduced compared to the untreated control	inhibition seen	significantly inhibited	No difference
